Test system: PDC KRAS tumor spheroids with HUVEC/MSC, viability
Test: Anticancer human tumor 349418-098-R-PDC patient-derived lung adenocarcinoma cell line growth inhibition [KRAS2]
Conditions: for IC50: curve of first compound; for viability, T/C: stronger effect = lower value; active means viability on the fitted dose curve at most 10% of control; inactive means the rest
Procedure, shortened: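 KRAS-mutant tumor cells were grown as spheroids with HUVEC endothelial cells and human MSCs as stroma. Targeted agents were tested alone and with KRAS pathway inhibitors. Doses started at or near clinical Cmax, or 10 microM, descending half-log.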

[1] = second compound 0.1 µM, first compound 0.0316 µM
[2] = second compound 0.1 µM, first compound 0.1 µM
[3] = second compound 0.1 µM, first compound 0.316 µM
[4] = second compound 0.1 µM, first compound 1 µM
[5] = second compound 0.1 µM, first compound 3.16 µM
[6] = second compound 0.1 µM, first compound 10 µM
[7] = second compound 0.316 µM, first compound 0.0316 µM
[8] = second compound 0.316 µM, first compound 0.1 µM
[9] = second compound 0.316 µM, first compound 0.316 µM
[10] = second compound 0.316 µM, first compound 1 µM
[11] = second compound 0.316 µM, first compound 3.16 µM
[12] = second compound 0.316 µM, first compound 10 µM
[13] = second compound 1 µM, first compound 0.0316 µM
[14] = second compound 1 µM, first compound 0.1 µM
[15] = second compound 1 µM, first compound 0.316 µM
[16] = second compound 1 µM, first compound 1 µM
[17] = second compound 1 µM, first compound 3.16 µM
[18] = second compound 1 µM, first compound 10 µM
[19] = second compound 3.16 µM, first compound 0.0316 µM
[20] = second compound 3.16 µM, first compound 0.1 µM
[21] = second compound 3.16 µM, first compound 0.316 µM
[22] = second compound 3.16 µM, first compound 1 µM
[23] = second compound 3.16 µM, first compound 3.16 µM
[24] = second compound 3.16 µM, first compound 10 µM
[25] = second compound 10 µM, first compound 0.0316 µM
[26] = second compound 10 µM, first compound 0.1 µM
[27] = second compound 10 µM, first compound 0.316 µM
[28] = second compound 10 µM, first compound 1 µM
[29] = second compound 10 µM, first compound 3.16 µM
[30] = second compound 10 µM, first compound 10 µM
[31] = second compound 0.1 µM, first compound 0.000316 µM
[32] = second compound 0.1 µM, first compound 0.001 µM
[33] = second compound 0.1 µM, first compound 0.00316 µM
[34] = second compound 0.1 µM, first compound 0.01 µM
[35] = second compound 0.316 µM, first compound 0.000316 µM
[36] = second compound 0.316 µM, first compound 0.001 µM
[37] = second compound 0.316 µM, first compound 0.00316 µM
[38] = second compound 0.316 µM, first compound 0.01 µM
[39] = second compound 1 µM, first compound 0.000316 µM
[40] = second compound 1 µM, first compound 0.001 µM
[41] = second compound 1 µM, first compound 0.00316 µM
[42] = second compound 1 µM, first compound 0.01 µM
[43] = second compound 3.16 µM, first compound 0.000316 µM
[44] = second compound 3.16 µM, first compound 0.001 µM
[45] = second compound 3.16 µM, first compound 0.00316 µM
[46] = second compound 3.16 µM, first compound 0.01 µM
[47] = second compound 10 µM, first compound 0.000316 µM
[48] = second compound 10 µM, first compound 0.001 µM
[49] = second compound 10 µM, first compound 0.00316 µM
[50] = second compound 10 µM, first compound 0.01 µM
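Further: spheroids exposed to compounds for seven days before readout.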

CC1OCC2(CCN(c3cnc(Sc4ccnc(N)c4Cl)c(N)n3)CC2)C1N (stereo not given) + CNCc1ccccc1-c1csc(C(C)Nc2nc(C)nc3cc(OC)c(OC)cc23)c1
< 31.6 nM: IC50 (second compound 1 µM) | IC50 (second compound 3.16 µM) | IC50 (second compound 10 µM)
active: viability, T/C [19] 0.05% | viability, T/C [20] 0.07% | viability, T/C [21] 0.06% | viability, T/C [22] 0.41% | viability, T/C [23] 0.12% | viability, T/C [24] 0.17% | viability, T/C [25] 0.06% | viability, T/C [26] 0.07% | viability, T/C [27] 0.06% | viability, T/C [28] 0.35% | viability, T/C [29] 0.07% | viability, T/C [30] 0.12%
> 10000 nM: IC50 (second compound 0.1 µM) | IC50 (second compound 0.316 µM)
inactive: viability, T/C [1] 84.7% | viability, T/C [2] 98.9% | viability, T/C [3] 65% | viability, T/C [4] 103% | viability, T/C [5] 111% | viability, T/C [6] 88.3% | viability, T/C [7] 103% | viability, T/C [8] 91.1% | viability, T/C [9] 109% | viability, T/C [10] 88.2% | viability, T/C [11] 88.4% | viability, T/C [12] 72.9% | viability, T/C [13] 42.8% | viability, T/C [14] 35.4% | viability, T/C [15] 34% | viability, T/C [16] 46.8% | viability, T/C [17] 50.6% | viability, T/C [18] 16.5%

CC(=O)Nc1cccc(-n2c(=O)n(C3CC3)c(=O)c3c(Nc4ccc(I)cc4F)n(C)c(=O)c(C)c32)c1 + COc1cc2nc(C)nc(NC(C)c3cc(N)cc(C(F)(F)F)c3)c2cc1OC1CCOC1
< 0.1 nM: IC50 (second compound 0.1 µM) | IC50 (second compound 0.316 µM) | IC50 (second compound 1 µM) | IC50 (second compound 3.16 µM) | IC50 (second compound 10 µM)
inactive: viability, T/C (second compound 0.1 µM, first compound 0.0001 µM) 26.5% | viability, T/C [31] 12.7% | viability, T/C (second compound 0.316 µM, first compound 0.0001 µM) 19.8% | viability, T/C [35] 10.8% | viability, T/C (second compound 1 µM, first compound 0.0001 µM) 18% | viability, T/C (second compound 3.16 µM, first compound 0.0001 µM) 14.4% | viability, T/C [43] 11%
active: viability, T/C [32] 8.13% | viability, T/C [33] 7.1% | viability, T/C [34] 6.58% | viability, T/C [1] 5.51% | viability, T/C [36] 8.06% | viability, T/C [37] 7.58% | viability, T/C [38] 6.23% | viability, T/C [7] 4.76% | viability, T/C [39] 8.51% | viability, T/C [40] 7.77% | viability, T/C [41] 6.73% | viability, T/C [42] 5.93% | viability, T/C [13] 4.86% | viability, T/C [44] 8.06% | viability, T/C [45] 5.6% | viability, T/C [46] 5.05% | viability, T/C [19] 4.65% | viability, T/C (second compound 10 µM, first compound 0.0001 µM) 5.99% | viability, T/C [47] 4.73% | viability, T/C [48] 4.46% | viability, T/C [49] 3.12% | viability, T/C [50] 4.29% | viability, T/C [25] 3.2%

CC(=O)OC12COC1CC(O)C1(C)C(=O)C(O)C3=C(C)C(OC(=O)C(O)C(NC(=O)OC(C)(C)C)c4ccccc4)CC(O)(C(OC(=O)c4ccccc4)C21)C3(C)C (stereo not given) + COc1cc2nc(C)nc(NC(C)c3cc(N)cc(C(F)(F)F)c3)c2cc1OC1CCOC1
< 10 nM: IC50 (second compound 0.1 µM) | IC50 (second compound 0.316 µM) | IC50 (second compound 1 µM) | IC50 (second compound 3.16 µM) | IC50 (second compound 10 µM)
inactive: viability, T/C [34] 22% | viability, T/C [1] 25.7% | viability, T/C [2] 24% | viability, T/C [3] 33.4% | viability, T/C [4] 27.4% | viability, T/C [5] 38.3% | viability, T/C [38] 20.7% | viability, T/C [7] 27.1% | viability, T/C [8] 25.8% | viability, T/C [9] 23.7% | viability, T/C [10] 28.6% | viability, T/C [11] 34.5% | viability, T/C [42] 22.8% | viability, T/C [13] 31.1% | viability, T/C [14] 27.4% | viability, T/C [15] 33.7% | viability, T/C [16] 27.8% | viability, T/C [17] 29.6% | viability, T/C [46] 18.3% | viability, T/C [19] 21.3% | viability, T/C [20] 21.7% | viability, T/C [21] 26.3% | viability, T/C [22] 28.3% | viability, T/C [23] 22.1% | viability, T/C [50] 20.1% | viability, T/C [25] 23.3% | viability, T/C [26] 25.4% | viability, T/C [27] 20.4% | viability, T/C [28] 23.2% | viability, T/C [29] 26.2%

CN(C)C/C=C/C(=O)Nc1cc2c(Nc3ccc(F)c(Cl)c3)ncnc2cc1O[C@H]1CCOC1 + COc1cc2nc(C)nc(NC(C)c3cc(N)cc(C(F)(F)F)c3)c2cc1OC1CCOC1
> 100 nM: IC50 (second compound 0.1 µM) | IC50 (second compound 0.316 µM) | IC50 (second compound 1 µM) | IC50 (second compound 3.16 µM) | IC50 (second compound 10 µM)
inactive: viability, T/C [31] 97.6% | viability, T/C [32] 104% | viability, T/C [33] 88.8% | viability, T/C [34] 95.3% | viability, T/C [1] 93.8% | viability, T/C [2] 92.8% | viability, T/C [35] 87.2% | viability, T/C [36] 102% | viability, T/C [37] 92.2% | viability, T/C [38] 102% | viability, T/C [7] 87.5% | viability, T/C [8] 88.2% | viability, T/C [39] 91.5% | viability, T/C [40] 97.4% | viability, T/C [41] 101% | viability, T/C [42] 92.8% | viability, T/C [13] 90.8% | viability, T/C [14] 91.9% | viability, T/C [43] 74.7% | viability, T/C [44] 78.2% | viability, T/C [45] 70.3% | viability, T/C [46] 77.7% | viability, T/C [19] 67.6% | viability, T/C [20] 75.1% | viability, T/C [47] 74% | viability, T/C [48] 69.7% | viability, T/C [49] 73.2% | viability, T/C [50] 78.8% | viability, T/C [25] 73.4% | viability, T/C [26] 62.8%

COC(=O)c1ccc2c(C(=Nc3ccc(N(C)C(=O)CN4CCN(C)CC4)cc3)c3ccccc3)c(O)[nH]c2c1 + COc1cc2nc(C)nc(NC(C)c3cc(N)cc(C(F)(F)F)c3)c2cc1OC1CCOC1
inactive: viability, T/C [1] 113% | viability, T/C [2] 97.2% | viability, T/C [3] 76.1% | viability, T/C [4] 78.8% | viability, T/C [5] 8.68% | viability, T/C [6] 15.6% | viability, T/C [7] 91.2% | viability, T/C [8] 121% | viability, T/C [9] 83% | viability, T/C [10] 56.8% | viability, T/C [11] 7.24% | viability, T/C [13] 88.9% | viability, T/C [14] 103% | viability, T/C [15] 90.5% | viability, T/C [16] 64.7% | viability, T/C [17] 9.57% | viability, T/C [18] 11.1% | viability, T/C [19] 66.5% | viability, T/C [20] 92.8% | viability, T/C [21] 78.2% | viability, T/C [22] 25.8% | viability, T/C [25] 41.8% | viability, T/C [26] 28% | viability, T/C [27] 36.7% | viability, T/C [28] 11.3%
1640 nM: IC50 (second compound 0.1 µM)
active: viability, T/C [12] 13.5% | viability, T/C [23] 5.92% | viability, T/C [24] 0.55% | viability, T/C [29] 1.15% | viability, T/C [30] 0.2%
587 nM: IC50 (second compound 3.16 µM)
< 31.6 nM: IC50 (second compound 10 µM)
1370 nM: IC50 (second compound 1 µM)
1050 nM: IC50 (second compound 0.316 µM)

O=C(c1cc(Cc2n[nH]c(=O)c3ccccc23)ccc1F)N1CCN(C(=O)C2CC2)CC1 + COc1cc2nc(C)nc(NC(C)c3cc(N)cc(C(F)(F)F)c3)c2cc1OC1CCOC1
4260 nM: IC50 (second compound 0.316 µM)
inactive: viability, T/C [1] 89.4% | viability, T/C [2] 96% | viability, T/C [3] 85.9% | viability, T/C [4] 85.6% | viability, T/C [5] 64.8% | viability, T/C [6] 32.3% | viability, T/C [7] 92.7% | viability, T/C [8] 94.8% | viability, T/C [9] 77.5% | viability, T/C [10] 87.6% | viability, T/C [11] 57.8% | viability, T/C [12] 27.5% | viability, T/C [13] 110% | viability, T/C [14] 105% | viability, T/C [15] 75.8% | viability, T/C [16] 93.8% | viability, T/C [17] 61.5% | viability, T/C [18] 30.2% | viability, T/C [19] 93.2% | viability, T/C [20] 76.6% | viability, T/C [21] 80.5% | viability, T/C [22] 60.1% | viability, T/C [23] 41.1% | viability, T/C [24] 23.8% | viability, T/C [25] 89.9% | viability, T/C [26] 36.1% | viability, T/C [27] 35.3% | viability, T/C [28] 22.2% | viability, T/C [29] 10.2% | viability, T/C [30] 9.73%
5370 nM: IC50 (second compound 0.1 µM)
4960 nM: IC50 (second compound 1 µM)
87.3 nM: IC50 (second compound 10 µM)
1940 nM: IC50 (second compound 3.16 µM)

— PubChem BioAssay AID1963866 (Molecular Pharmacology Branch, DTP, NCI, 2024)
